In patent publication US8461145B2 (priority 2007, dated 2013):

Target: Human TRPA1 (Homo sapiens, UniProt O75762)
Assay: cell-based
Conditions: for EC50: pEC50 values for TRPA1 agonism

Sequence of Human TRPA1 (O75762 whole entry, looked up): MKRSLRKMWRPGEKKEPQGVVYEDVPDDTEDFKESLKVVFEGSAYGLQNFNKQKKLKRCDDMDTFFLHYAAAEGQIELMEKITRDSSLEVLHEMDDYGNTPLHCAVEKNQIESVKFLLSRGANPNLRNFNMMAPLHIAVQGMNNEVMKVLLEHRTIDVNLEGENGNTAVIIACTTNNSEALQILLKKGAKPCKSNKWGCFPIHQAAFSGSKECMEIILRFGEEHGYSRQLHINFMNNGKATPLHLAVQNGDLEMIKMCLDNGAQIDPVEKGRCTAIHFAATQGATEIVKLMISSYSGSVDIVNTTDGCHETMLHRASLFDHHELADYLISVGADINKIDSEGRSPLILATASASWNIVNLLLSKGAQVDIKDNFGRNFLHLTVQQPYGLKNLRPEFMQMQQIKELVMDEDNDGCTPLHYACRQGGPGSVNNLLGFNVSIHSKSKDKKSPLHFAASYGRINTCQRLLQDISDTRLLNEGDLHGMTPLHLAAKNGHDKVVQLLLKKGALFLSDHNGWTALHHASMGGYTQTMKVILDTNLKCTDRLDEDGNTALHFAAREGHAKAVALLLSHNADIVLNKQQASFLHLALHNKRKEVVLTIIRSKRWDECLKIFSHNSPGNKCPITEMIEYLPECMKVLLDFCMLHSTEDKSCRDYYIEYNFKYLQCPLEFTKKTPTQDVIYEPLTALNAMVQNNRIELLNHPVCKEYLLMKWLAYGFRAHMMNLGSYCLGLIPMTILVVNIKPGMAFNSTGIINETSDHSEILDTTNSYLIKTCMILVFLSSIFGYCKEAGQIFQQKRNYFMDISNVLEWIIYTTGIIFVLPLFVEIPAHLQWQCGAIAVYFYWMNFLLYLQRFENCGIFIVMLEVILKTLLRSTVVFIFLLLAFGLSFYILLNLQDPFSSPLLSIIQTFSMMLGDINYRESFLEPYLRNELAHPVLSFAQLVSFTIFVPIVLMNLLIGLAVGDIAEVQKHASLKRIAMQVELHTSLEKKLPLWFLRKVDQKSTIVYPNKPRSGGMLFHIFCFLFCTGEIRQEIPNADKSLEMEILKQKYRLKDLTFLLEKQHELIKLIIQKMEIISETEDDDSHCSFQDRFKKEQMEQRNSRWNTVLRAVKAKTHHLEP

Row | Structure (SMILES) | EC50 [nM] | pEC50 values for TRPA1 agonism
1 | COC(=O)c1ccc2c(c1)C=Nc1ccccc1C2 [Compound 1] | 93.3 | –
2 | COC(=O)c1ccc2c(c1)Cc1ccccc1C=N2 [Compound 3] | – | 9.24
3 | O=C(O)c1cccc2c1Cc1ccccc1N=C2 [Compound 4] | 363 | –
4 | CCN(CC)C(=O)c1cccc2c1Cc1ccccc1N=C2 [Compound 5] | 44.7 | –
5 | COCCCNC(=O)c1cccc2c1Cc1ccccc1N=C2 [Compound 6] | 8.71 | –
6 | COCCCNC(=O)c1cccc2c1Cc1ccccc1N=C2 [Compound 7] | 5.89 | –
7 | CN1CCN(C(=O)c2ccc3c(c2)Cc2ccccc2C=N3)CC1 [Compound 8] | 3.16 | –
8 | COC(=O)c1ccc2c(c1)Oc1ccccc1N=C2 [Compound 10] | – | 7.28
9 | COC(=O)c1cccc2c1Oc1ccccc1N=C2 [Compound 11] | 0.0813 | –
10 | COC(=O)c1cccc2c1Oc1ccccc1N=C2 [Compound 12] | – | 10.22
11 | CCCCOC(=O)c1cccc2c1Cc1ccccc1N=C2 [Compound 13] | – | 8.07
12 | CCCCOC(=O)c1cccc2c1Cc1ccccc1N=C2 [Compound 14] | 5.62 | –
13 | CN1CCN(C(=O)c2ccc3c(c2)Cc2ccccc2N=C3)CC1 [Compound 15] | 1620 | –
14 | COC(=O)c1cccc2c1Cc1ccccc1C=N2 [Compound 17] | – | 9.24
15 | COC(=O)c1cccc2c1N=Cc1ccccc1C2 [Compound 18] | 27.5 | –
16 | COC(=O)c1cccc2c1C=Nc1ccccc1C2 [Compound 19] | 28.8 | –
17 | COC(=O)c1ccc2c(c1)N=Cc1ccccc1C2 [Compound 20] | 28.2 | –
18 | NC(=O)c1cccc2c1Oc1ccccc1N=C2 [Compound 21] | – | 10.12
19 | COC(=O)c1cccc2c1Oc1ccccc1C=N2 [Compound 23] | – | 9.93
20 | COC(=O)c1cccc2c1Oc1ccccc1C=N2 [Compound 24] | 0.0741 | –
21 | COC(=O)c1cccc2c1Cc1ccccc1C=N2 [Compound 25] | 0.447 | –
22 | COC(=O)c1cccc2c1N=Cc1ccccc1C2 [Compound 26] | 38 | –
